≈ marks a conversion by molar mass, not a printed value.
Legend:
Test in all cases: in vitro antibacterial evaluation, MIC by broth dilution
Type in all cases: cell-based
Enterococcus sp. = conditions: broth dilution, 18 hours at 35° C.
Procedure, shortened: (§1)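 Following National Committee for Clinical Laboratory Standards recommendations (M7-A2), susceptibility was measured by dilution in Muller-Hinton II […]. Bacteria were seeded at 5×10^5 CFU/mL against compound concentrations from 64 down to 0.06 μg/mL.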

Staphylococcus sp. = conditions: broth dilution, 18 hours at 35° C.; for MIC Staphylococcus aureus (ATCC 29213): strain ATCC 29213; for MIC Staphylococcus aureus (GC 1131): strain GC 1131; for MIC Staphylococcus aureus (GC 4541): strain GC 4541; for MIC Staphylococcus aureus (GC 4542): strain GC 4542; for MIC Staphylococcus aureus (GC 4544): strain GC 4544; for MIC Staphylococcus aureus (GC 4545): strain GC 4545
Procedure, shortened: as §1

Streptococcus sp. = conditions: broth dilution, 18 hours at 35° C.
Procedure, shortened: as §1

Escherichia coli = conditions: 18 hours at 35° C.
Procedure, shortened: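 Broth dilution in Muller-Hinton II medium per NCCLS standard M7-A2, with an inoculum of 5×10^5 CFU/mL and antibiotic tested over 64-0.06 μg/mL. MIC was taken as the lowest concentration inhibiting visible growth.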

[1] = Enterococcus faecalis (ATCC 29212)
[2] = Enterococcus faecalis (GC 4552)
[3] = Enterococcus faecalis (GC 4553)
[4] = Enterococcus faecalis (GC 4554)

## CC(c1ccccc1)C1NC(=O)CNC(=O)C(CO)NC(=O)C(C(O)C2CN(c3nc4ccccc4s3)C(=N)N2C2OC(CO)C(O)C(O)C2O)NC(=O)C(C(O)C2CNC(=Nc3nc4ccccc4s3)N2)NC(=O)C(Cc2ccc(OC3OC(CO)C(OC4OC(CO)C(O)C(O)C4O)C(O)C3O)cc2)NC1=O (stereo not drawn) [Example 94, Cyclo[glycyl-β-methylphenylalanyl-O-(4-O-hexopyranosylhexopyranosyl)tyrosyl-3-[2-(1,3-benzothiazol-2-ylimino)imidazolidin-4-yl]seryl-3-[1-(1,3-benzo-thiazol-2-yl)-2-imino-3-hexopyranosylimidazolidin-4-yl]serylseryl]]
Enterococcus sp.; Enterococcus avium (GC 4558)
  MIC Enterococcus avium (GC 4558): >64 µg/mL
Enterococcus sp.; [1]
  MIC Enterococcus faecalis (ATCC 29212): >64 µg/mL
Enterococcus sp.; [2]
  MIC Enterococcus faecalis (GC 4552): >64 µg/mL
Enterococcus sp.; [3]
  MIC Enterococcus faecalis (GC 4553): >64 µg/mL
Enterococcus sp.; [4]
  MIC Enterococcus faecalis (GC 4554): >64 µg/mL
Enterococcus sp.; Enterococcus faecalis (GC 6189)
  MIC Enterococcus faecalis (GC 6189): >64 µg/mL
Enterococcus sp.; Enterococcus faecium (GC 2243)
  MIC Enterococcus faecium (GC 2243): >64 µg/mL
Enterococcus sp.; Enterococcus faecium (GC 4556)
  MIC Enterococcus faecium (GC 4556): >64 µg/mL
Enterococcus sp.; Enterococcus faecium (GC 4557)
  MIC Enterococcus faecium (GC 4557): >64 µg/mL
Enterococcus sp.
  MIC Enterococcus avium (GC 4558): >64 µg/mL
  MIC Enterococcus faecalis (ATCC 29212): >64 µg/mL
  MIC Enterococcus faecalis (GC 2242): >64 µg/mL
  MIC Enterococcus faecalis (GC 2691): >64 µg/mL
  MIC Enterococcus faecalis (GC 3059): >64 µg/mL
  MIC Enterococcus faecalis (GC 4552): >64 µg/mL
  MIC Enterococcus faecalis (GC 4553): >64 µg/mL
  MIC Enterococcus faecalis (GC 4554): >64 µg/mL
  MIC Enterococcus faecalis (GC 6189): >64 µg/mL
  MIC Enterococcus faecium (GC 2243): >64 µg/mL
  MIC Enterococcus faecium (GC 4556): >64 µg/mL
  MIC Enterococcus faecium (GC 4557): >64 µg/mL
Enterococcus sp.; strain GC 2242
  MIC Enterococcus faecalis (GC 2242): >64 µg/mL
Enterococcus sp.; strain GC 2691
  MIC Enterococcus faecalis (GC 2691): >64 µg/mL
Enterococcus sp.; strain GC 3059
  MIC Enterococcus faecalis (GC 3059): >64 µg/mL
Staphylococcus sp.
  MIC Coagulase Negative Staphylococcus (GC 4547): >64 µg/mL
  MIC Coagulase Negative Staphylococcus (GC 4548): >64 µg/mL
  MIC Coagulase Negative Staphylococcus (GC 4549): >64 µg/mL
  MIC Coagulase Negative Staphylococcus (GC 4551): >64 µg/mL
  MIC Staphylococcus aureus-SMITH (GC 4543): >64 µg/mL
  MIC Staphylococcus haemolyticus (GC 4546): >64 µg/mL
  MIC Staphylococcus aureus (ATCC 29213): >64 µg/mL
  MIC Staphylococcus aureus (GC 1131): >64 µg/mL
  MIC Staphylococcus aureus (GC 4541): >64 µg/mL
  MIC Staphylococcus aureus (GC 4542): >64 µg/mL
  MIC Staphylococcus aureus (GC 4544): >64 µg/mL
  MIC Staphylococcus aureus (GC 4545): >64 µg/mL
Staphylococcus sp.; strain GC 3051
  MIC Staphylococcus aureus (GC 3051): >64 µg/mL
Staphylococcus sp.; strain GC 3053
  MIC Staphylococcus aureus (GC 3053): >64 µg/mL
Staphylococcus sp.; strain GC 4543
  MIC Staphylococcus aureus-SMITH (GC 4543): >64 µg/mL
Staphylococcus sp.; strain GC 4546
  MIC Staphylococcus haemolyticus (GC 4546): >64 µg/mL
Staphylococcus sp.; strain GC 4547
  MIC Coagulase Negative Staphylococcus (GC 4547): >64 µg/mL
Staphylococcus sp.; strain GC 4548
  MIC Coagulase Negative Staphylococcus (GC 4548): >64 µg/mL
Staphylococcus sp.; strain GC 4549
  MIC Coagulase Negative Staphylococcus (GC 4549): >64 µg/mL
Staphylococcus sp.; strain GC 4551
  MIC Coagulase Negative Staphylococcus (GC 4551): >64 µg/mL
Streptococcus sp.
  MIC Streptococcus agalactiae (GC 4564): >64 µg/mL
  MIC Streptococcus pneumoniae (ATCC 6301): >64 µg/mL
  MIC Streptococcus pneumoniae (GC 1894): >64 µg/mL
  MIC Streptococcus pneumoniae (GC 4565): >64 µg/mL
  MIC Streptococcus pyogenes (GC 4563): >64 µg/mL
Streptococcus sp.; strain ATCC 6301
  MIC Streptococcus pneumoniae (ATCC 6301): >64 µg/mL
Streptococcus sp.; strain GC 1894
  MIC Streptococcus pneumoniae (GC 1894): >64 µg/mL
Streptococcus sp.; strain GC 4563
  MIC Streptococcus pyogenes (GC 4563): >64 µg/mL
Streptococcus sp.; strain GC 4564
  MIC Streptococcus agalactiae (GC 4564): >64 µg/mL
Streptococcus sp.; strain GC 4565
  MIC Streptococcus pneumoniae (GC 4565): >64 µg/mL
Escherichia coli
  MIC Escherichia coli (ATCC 25922): >64 µg/mL
  MIC Escherichia coli (GC 4559): >64 µg/mL
  MIC Escherichia coli (GC 4560): 64 µg/mL (≈ 41 µM)

## CC(c1ccccc1)C1NC(=O)CNC(=O)C(CO)NC(=O)C(C(O)C2CNC(=N)N2C2OC(COC(=O)C(c3ccccc3)c3ccccc3)C(O)C(O)C2O)NC(=O)C(C(O)C2CNC(=N)N2)NC(=O)C(Cc2ccc(OC3OC(CO)C(OC4OC(CO)C(O)C(O)C4O)C(O)C3O)cc2)NC1=O (stereo not drawn) [Example 96, Cyclo[glycyl-β-methylphenylalanyl-O-(4-O-hexopyranosylhexoipyranosyl)tyrosyl-3-(2-iminoimidazolidin-4-yl)seryl-3-[3-[6-O-(diphenylacetyl)hexopyranosyl]-2-iminoimidazolidin-4-yl]-serylseryl]]
Enterococcus sp.; Enterococcus avium (GC 4558)
  MIC Enterococcus avium (GC 4558): >128 µg/mL
Enterococcus sp.; [1]
  MIC Enterococcus faecalis (ATCC 29212): >128 µg/mL
Enterococcus sp.; [2]
  MIC Enterococcus faecalis (GC 4552): >128 µg/mL
Enterococcus sp.; [3]
  MIC Enterococcus faecalis (GC 4553): >128 µg/mL
Enterococcus sp.; [4]
  MIC Enterococcus faecalis (GC 4554): >128 µg/mL
Enterococcus sp.; Enterococcus faecium (GC 2243)
  MIC Enterococcus faecium (GC 2243): >128 µg/mL
Enterococcus sp.; Enterococcus faecium (GC 4556)
  MIC Enterococcus faecium (GC 4556): >128 µg/mL
Enterococcus sp.; Enterococcus faecium (GC 4557)
  MIC Enterococcus faecium (GC 4557): 128 µg/mL (≈ 85.9 µM)
Enterococcus sp.
  MIC Enterococcus avium (GC 4558): >128 µg/mL
  MIC Enterococcus faecalis (ATCC 29212): >128 µg/mL
  MIC Enterococcus faecalis (GC 2242): >128 µg/mL
  MIC Enterococcus faecalis (GC 4552): >128 µg/mL
  MIC Enterococcus faecalis (GC 4553): >128 µg/mL
  MIC Enterococcus faecalis (GC 4554): >128 µg/mL
  MIC Enterococcus faecium (GC 2243): >128 µg/mL
  MIC Enterococcus faecium (GC 4556): >128 µg/mL
  MIC Enterococcus faecium (GC 4557): 128 µg/mL (≈ 85.9 µM)
Enterococcus sp.; strain GC 2242
  MIC Enterococcus faecalis (GC 2242): >128 µg/mL
Staphylococcus sp.
  MIC Coagulase Negative Staphylococcus (GC 4547): >128 µg/mL
  MIC Coagulase Negative Staphylococcus (GC 4548): >128 µg/mL
  MIC Coagulase Negative Staphylococcus (GC 4549): >128 µg/mL
  MIC Coagulase Negative Staphylococcus (GC 4551): >128 µg/mL
  MIC Coagulase Negative Staphylococcus (ID-3941): 128 µg/mL (≈ 85.9 µM)
  MIC Staphylococcus aureus-SMITH (GC 4543): >128 µg/mL
  MIC Staphylococcus haemolyticus (GC 4546): >128 µg/mL
  MIC Staphylococcus aureus (ATCC 29213): >128 µg/mL
  MIC Staphylococcus aureus (GC 1131): >128 µg/mL
  MIC Staphylococcus aureus (GC 4541): >128 µg/mL
  MIC Staphylococcus aureus (GC 4542): >128 µg/mL
  MIC Staphylococcus aureus (GC 4544): >128 µg/mL
  MIC Staphylococcus aureus (GC 4545): >128 µg/mL
Staphylococcus sp.; strain GC 4543
  MIC Staphylococcus aureus-SMITH (GC 4543): >128 µg/mL
Staphylococcus sp.; strain GC 4546
  MIC Staphylococcus haemolyticus (GC 4546): >128 µg/mL
Staphylococcus sp.; strain GC 4547
  MIC Coagulase Negative Staphylococcus (GC 4547): >128 µg/mL
Staphylococcus sp.; strain GC 4548
  MIC Coagulase Negative Staphylococcus (GC 4548): >128 µg/mL
Staphylococcus sp.; strain GC 4549
  MIC Coagulase Negative Staphylococcus (GC 4549): >128 µg/mL
Staphylococcus sp.; strain GC 4551
  MIC Coagulase Negative Staphylococcus (GC 4551): >128 µg/mL
Staphylococcus sp.; strain ID-3941
  MIC Coagulase Negative Staphylococcus (ID-3941): 128 µg/mL (≈ 85.9 µM)
Streptococcus sp.
  MIC Streptococcus agalactiae (GC 4564): >128 µg/mL
  MIC Streptococcus pneumoniae (GC 4565): >128 µg/mL
  MIC Streptococcus pyogenes (ID-3187): >128 µg/mL
Streptococcus sp.; strain GC 4564
  MIC Streptococcus agalactiae (GC 4564): >128 µg/mL
Streptococcus sp.; strain GC 4565
  MIC Streptococcus pneumoniae (GC 4565): >128 µg/mL
Streptococcus sp.; strain ID-3187
  MIC Streptococcus pyogenes (ID-3187): >128 µg/mL
Escherichia coli
  MIC Escherichia coli (ATCC 25922): >128 µg/mL

Source: patent US6914045B2, “Glycopeptide antibiotics” (Wyeth Holdings Corporation, priority 2001, dated 2005)
